The values that follow come from patent publication US7268245B2, “Multinuclear platinum compounds” (Sonus Pharmaceuticals, Inc., priority 2004, dated 2007).

Read-outs that look alike come from different tables or passages of the source. A value given as a limit tells only on which side of the number the result lay.

What all share (format): cell-based
The test system of assay [1] is NCI-H69/AR small cell lung cancer cell line. As to the kind of experiment: MTS cell viability assay, growth inhibition, NCI-H69/AR. Conditions: NCI-H69/AR cells, 72 hours of treatment. As to the method: (§1) Cytotoxicity was measured in six cell lines: two colorectal carcinoma cell lines (HT29 and HCT-116); two small cell lung cancer cell lines (NCI-H69 and NCI-H69/AR); and two ovarian cancer cell lines (A2780 and A2780/DPPt). Viable cell number was measured using the MTS cell viability assay ([…] 96 AQueous One Solution Cell Proliferation Assay kit available from Promega, US). […] Cisplatin was prepared in saline. […] All tumor lines were propagated under sterile conditions and incubated at 37° C. in HEPA-filtered CO2 tissue culture incubators with 5% CO2 and 95% humidity in colorless RPMI 1640 medium (Mediatech, Herndon, Va.) containing 5% fetal bovine serum (complete medium). The ovarian and colon tumor cell lines were plated in microtiter plates at a density of 5,000 cells per well. The lung lines were plated at a density of 10,000 cells per well. Viable cell number was measured by the MTS dye conversion assay after a total of 72 hours of treatment. […] The plates were incubated for four hours at 37° C. The absorbance was measured at 490 nm on a Coulter microplate reader.
For orientation: Tetrazolium dyes change colour on reduction, which living cells bring about.

In assay [2] the test system is A2780/DDPT ovarian cancer cell line (platinum resistant). As to the kind of experiment: MTS cell viability assay, growth inhibition, A2780/DDPT. As to the method:
as §1

For assay [3], the system named is HT29 colorectal carcinoma cell line. As to the kind of experiment: MTS cell viability assay, growth inhibition, HT29. Conditions: HT29 cells, 72 hours of treatment. As to the method:
as §1

The test system of assay [4] is NCI-H69 small cell lung cancer cell line. As to the kind of experiment: MTS cell viability assay, growth inhibition, NCI-H69. Conditions: NCI-H69 cells, 72 hours of treatment. As to the method:
as §1

Assay [5] concerns A2780 ovarian cancer cell line. As to the kind of experiment: MTS cell viability assay, growth inhibition, A2780. Conditions: A2780 cells. As to the method:
as §1

In assay [6] the test system is HCT-116 colorectal carcinoma cell line. As to the kind of experiment: MTS cell viability assay, growth inhibition, HCT-116. Conditions: HCT-116 cells, 72 hours of treatment. On the procedure:
as §1

Where [7] appears, read: A2780 (platinum resistant) cells, method of Example 10 (text of Examples 8 and 9), read-out: GI50 for A2780 (platinum resistant).
Setting [8] is: A2780/DDPT cells, 72 hours of treatment, MTS, read-out: Growth Inhibition (GI50) A2780/DDPT.
[9] abbreviates: 72 hours of treatment, MTS, read-out: Growth Inhibition (GI50) A2780.
Setting [10] is: method of Example 10 (text of Examples 8 and 9), read-out: GI50 for A2780.

Regarding `N.N.[Cl][Pt][Cl]` [Cisplatin, cis-diaminedichloroplatinum (II), reference compound], the GI50 was determined as 15 µM in assay [1]; 57 µM in assay [2] (setting [7]); 57 µM in assay [2] (setting [8]); 61 µM in assay [3]; 15 µM in assay [4]; 15 µM in assay [5] (setting [9]). Moreover, the GI50 in assay [5] (setting [10]) worked out at 15 µM; in assay [6], 43 µM.

For “ethylene glycol-bis-(β-aminoethyl)-N,N,N′,N′-tetraacetic-acid-diplatinum [EGTA-diplatinum]”, the GI50 in assay [1], in assay [4], in assay [5] (setting [9]) and in assay [6] was > 100 µM each time.

Consider “triethylene-tetraamine-N,N,N′,N″,N′″,N′″-hexaacetic-acid-diplatinum [TTHA-diplatinum]”, for which the GI50 in assay [1] is 16 µM; in assay [2] (setting [8]), 48 µM; in assay [3], 53 µM; in assay [4], 9.3 µM; in assay [5] (setting [9]) it was 7.1 µM; in assay [6], 23 µM.

On to “1,3-Diamino-2-hydroxypropane-N,N,N′,N′-tetraacetic-acid-diplatinum [DAPTA-diplatinum]”, for which the GI50 was 21 µM in assay [1]; > 100 µM in assay [2] (setting [8]); > 100 µM in assay [3]; 27 µM in assay [4]; 20 µM in assay [5] (setting [9]); 81 µM in assay [6].

Consider “diethylenetriamine-N,N,N′,N″,N″-pentaacetic-acid-diplatinum [DTPA-diplatinum]”, for which the GI50 in assay [1] amounted to 23 µM; in assay [2] (setting [8]), 62 µM; in assay [3], 54 µM; in assay [4], 18 µM; in assay [5] (setting [9]), 19 µM; in assay [6] it was 41 µM.

Regarding “diethylenetriamine-N,N,N′,N″,N″-pentaacetic-acid-triplatinum [DTPA-triplatinum]”, the values for the GI50 in assay [2] (setting [7]) and in assay [5] (setting [10]) were 63 µM and 19 µM, respectively.

For the molecule “triethylenetetraamine-N,N,N′,N″,N′″,N′″-hexaacetic-acid-tetraplatinum [TTHA-tetraplatinum]”, the GI50 in assay [2] (setting [7]) is 50 µM; in assay [5] (setting [10]) it was 7 µM.
